Holding throughout (assay type): biochemical
In one test the target is T1, MGLL (Mus musculus, UniProt O35678).
T1 construct: Brain; from tissue; host or cells: mouse brain proteome
T1 sequence (O35678 1-303): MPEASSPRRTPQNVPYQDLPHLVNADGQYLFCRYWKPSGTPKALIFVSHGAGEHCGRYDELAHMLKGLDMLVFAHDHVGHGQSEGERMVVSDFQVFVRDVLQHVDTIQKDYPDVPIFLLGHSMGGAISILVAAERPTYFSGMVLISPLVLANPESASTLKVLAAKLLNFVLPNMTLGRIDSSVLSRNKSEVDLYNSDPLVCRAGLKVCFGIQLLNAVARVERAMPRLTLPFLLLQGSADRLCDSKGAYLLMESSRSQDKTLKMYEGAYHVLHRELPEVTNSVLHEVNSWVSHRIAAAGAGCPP
The test can be described thus: In vitro competitive activity-based protein profiling, mouse brain proteome (MGLL). To be noted: concentration not given (μM).

For the next test, the target named is T2, ABHD6 (Mus musculus, UniProt Q8R2Y0).
T2 construct: Brain; from tissue; host or cells: mouse brain proteome
T2 sequence (Q8R2Y0 1-336): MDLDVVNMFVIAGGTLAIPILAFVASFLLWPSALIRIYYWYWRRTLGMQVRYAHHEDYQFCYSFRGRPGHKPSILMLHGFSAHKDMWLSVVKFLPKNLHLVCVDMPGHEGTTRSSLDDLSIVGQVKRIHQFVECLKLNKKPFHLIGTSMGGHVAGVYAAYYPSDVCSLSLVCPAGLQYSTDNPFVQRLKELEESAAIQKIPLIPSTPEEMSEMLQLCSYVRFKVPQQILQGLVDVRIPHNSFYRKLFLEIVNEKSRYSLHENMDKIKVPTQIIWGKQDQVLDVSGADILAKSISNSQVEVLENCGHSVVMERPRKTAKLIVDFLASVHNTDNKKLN
The test can be described thus: In vitro competitive activity-based protein profiling, mouse brain proteome (ABHD6). Conditions: mouse brain proteome; concentration not given (μM). How it is done: [The source words this procedure for another target and reports this target under the same test.] (§1) In Vitro Competitive Activity-Based Protein Profiling.
(§2) Proteomes (human prefrontal cortex or cell membrane fractions) (50 μL, 1.0 mg/mL total protein concentration) were preincubated with varying concentrations of inhibitors at 37° C. After 30 min, FP-Rh or HT-01 (1.0 μL, 50 μM in DMSO) was added and the mixture was incubated for another 30 min at room temperature. Reactions were quenched with SDS loading buffer (15 μL-4×) and run on SDS-PAGE.

In a further test the target is T3, MAGL (Homo sapiens, UniProt Q99685).
T3 construct: Proteomes (human prefrontal cortex or cell membrane fractions); from tissue
T3 sequence (Q99685 1-303): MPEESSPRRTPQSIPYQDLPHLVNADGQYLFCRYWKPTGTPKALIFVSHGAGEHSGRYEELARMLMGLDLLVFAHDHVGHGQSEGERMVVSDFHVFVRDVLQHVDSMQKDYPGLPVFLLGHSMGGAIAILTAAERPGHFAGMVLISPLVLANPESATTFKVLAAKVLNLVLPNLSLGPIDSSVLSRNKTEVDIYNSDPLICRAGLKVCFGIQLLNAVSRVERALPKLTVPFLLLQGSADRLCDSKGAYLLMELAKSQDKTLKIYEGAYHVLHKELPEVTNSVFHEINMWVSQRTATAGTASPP
Kind of test: In vitro competitive activity-based protein profiling (FP-Rh or HT-01 probe, gel-based). Also noted: IC50 MGLL PC3 (Human, μM) / IC50 MGLL PFC (Human, μM): scale not given here. To be noted: for % Inh MGLL PC3 (Human, μM) / pIC50 / IC50 MGLL PC3 (Human, μM): PC3 cell proteome; for % Inh MGLL PC3 (Human, μM) / % Inh MGLL PFC (Human, μM): concentration not given (μM); for pIC50: read-out: IC50 MGLL PC3 (Human); for % Inh MGLL PFC (Human, μM): prefrontal cortex (PFC) proteome. How it is done:
as §1, §2

pIC50: −log10 of the molar value.

A word on the pIC50: it is −log10 of the IC50, conventionally taken in molar units.

Turning to `CC(C)(C#Cc1ccccc1CN1CCCC12CCN(C(=O)OC(C(F)(F)F)C(F)(F)F)CC2)C(=O)O` [Example 145, 4-{2-[(8-{[(1,1,1,3,3,3-Hexafluoropropan-2-yl)oxy]carbonyl}-1,8-diazaspiro[4.5]decan-1-yl)methyl]phenyl}-2,2-dimethylbut-3-ynoic acid], the “% Inh MGLL Brain (Mouse, μM)” value at MGLL was “### (### is ≥75%)”. Also, at ABHD6, the “% Inh ABHD6 Brain (Mouse, μM)” value is reported as “# (# is ≤25%)”. Further, the “% Inh MGLL PC3 (Human, μM)” value at MAGL was “### (### is ≥75%)”.
As for `O=C(O)[C@H]1CCCN1C1CCN(c2cc(C(F)(F)F)ccc2CN2CCCC23CCN(C(=O)OC(C(F)(F)F)C(F)(F)F)CC3)CC1` [Example 160, (1-(2-((8-(((1,1,1,3,3,3-Hexafluoropropan-2-yl)oxy)carbonyl)-1,8-diazaspiro[4.5]decan-l-yl)methyl)-5-(trifluoromethyl)phenyl)piperidin-4-yl)-D-proline], the “% Inh MGLL Brain (Mouse, μM)” value on MGLL is reported as “### (### is ≥75%)”. In addition, the “% Inh ABHD6 Brain (Mouse, μM)” value on ABHD6 was “# (# is ≤25%)”. At MAGL, the “% Inh MGLL PC3 (Human, μM)” value is on record as “### (### is ≥75%)” and the pIC50 was greater than 7.00.
In the case of `O=C(OC(C(F)(F)F)C(F)(F)F)N1CCC2(CC1)CCN(C(=O)c1cc(Cl)cc(C(F)(F)F)c1)C2` [Example 110, 1,1,1,3,3,3-Hexafluoropropan-2-yl 2-(3-chloro-5-(trifluoromethyl)benzoyl)-2,8-diazaspiro[4.5]decane-8-carboxylate], the “% Inh MGLL Brain (Mouse, μM)” value at MGLL is given as “### (### is ≥75%)”. The “% Inh ABHD6 Brain (Mouse, μM)” value on ABHD6 was “### (### is ≥75%)”. Further, the “% Inh MGLL PFC (Human, μM)” value at MAGL is “### (### is ≥75%)”.
For the compound `O=C(O)C1CCN(c2cc(Cl)ccc2CN2CC3(CCN(C(=O)OC(C(F)(F)F)C(F)(F)F)CC3)C2)CC1` [Example 122, l-(5-Chloro-2-((7-(((1,1,1,3,3,3-hexafluoropropan-2-yl)oxy)carbonyl)-2,7-diazaspiro[3.5]nonan-2-yl)methyl)phenyl)piperidine-4-carboxylic acid], at MGLL, the “% Inh MGLL Brain (Mouse, μM)” value was “### (### is ≥75%)”. Moreover, the “% Inh ABHD6 Brain (Mouse, μM)” value at ABHD6 was “# (# is ≤25%)”. The “% Inh MGLL PFC (Human, μM)” value on MAGL is “### (### is ≥75%)”.
Regarding `CN(Cc1ccccc1C1(C(=O)O)CCCC1)C1(C)CCN(C(=O)OC(C(F)(F)F)C(F)(F)F)CC1` [Example 141, 1-(2-{[(1-{[(1,1,1,3,3,3-Hexafluoropropan-2-yl)oxy]carbonyl}-4-methylpiperidin-4-yl)(methyl)amino]methyl}phenyl)cyclopentane-1-carboxylic acid], at MGLL, the “% Inh MGLL Brain (Mouse, μM)” value is reported as “### (### is ≥75%)”. Moreover, the “% Inh ABHD6 Brain (Mouse, μM)” value at ABHD6 was “# (# is ≤25%)”. Moreover, on MAGL, the “% Inh MGLL PC3 (Human, μM)” value was “### (### is ≥75%)”.
On to `CN(Cc1ccc(Cl)cc1N1CCC(C(=O)O)CC1)C1(C)CCN(C(=O)OC(C(F)(F)F)C(F)(F)F)CC1` [Example 135, l-(5-Chloro-2-(((1-(((1,1,1,3,3,3-hexafluoropropan-2-yl)oxy)carbonyl)-4-methylpiperidin-4-yl)(methyl)amino)methyl)phenyl)piperidine-4-carboxylic acid], for which the “% Inh MGLL Brain (Mouse, μM)” value at MGLL is “### (### is ≥75%)”. The “% Inh ABHD6 Brain (Mouse, μM)” value at ABHD6 is recorded as “### (### is ≥75%)”. Besides, the “% Inh MGLL PC3 (Human, μM)” value at MAGL is “### (### is ≥75%)”.
Regarding `O=C(O)[C@H]1CCCN(c2cc(C(F)(F)F)ccc2CN2CC3(CCN(C(=O)OC(C(F)(F)F)C(F)(F)F)CC3)C2)C1` [Example 111, (S)-1-(2-((7-(((1,1,1,3,3,3-hexafluoropropan-2-yl)oxy)carbonyl)-2,7-diazaspiro[3,5]nonan-2-yl)methyl)-5-(trifluoromethyl)phenyl) piperidine-3-carboxylic acid], the “% Inh MGLL Brain (Mouse, μM)” value at MGLL is recorded as “### (### is ≥75%)”. Besides, on ABHD6, the “% Inh ABHD6 Brain (Mouse, μM)” value is “### (### is ≥75%)”. Further, the “% Inh MGLL PFC (Human, μM)” value at MAGL is recorded as “### (### is ≥75%)”.
For `CN(Cc1ccc(C(F)(F)F)cc1-c1nnn[nH]1)C1(C)CCN(C(=O)OC(C(F)(F)F)C(F)(F)F)CC1` [Example 24, 1,1,1,3,3,3-Hexafluoropropan-2-yl 4-((2-(1H-tetrazol-5-yl)-4-(trifluoromethyl)benzyl)(methyl)amino)-4-methylpiperidine-1-carboxylate], at MGLL, the “% Inh MGLL Brain (Mouse, μM)” value is reported as “### (### is ≥75%)”. Also, the “% Inh ABHD6 Brain (Mouse, μM)” value at ABHD6 was “## (## is between 25 and 75%)”. In addition, on MAGL, the “IC50 MGLL PC3 (Human, μM)” value is “* * *” and the “% Inh MGLL PFC (Human, μM)” value is on record as “### (### is ≥75%)”.
For the compound `O=C(O)C1CCN(c2cc(Cl)cc(CN3CC4(CCN(C(=O)OC(C(F)(F)F)C(F)(F)F)CC4)C3)c2)CC1` [Example 116, l-(3-Chloro-5-((7-(((1,1,1,3,3,3-hexafluoropropan-2-yl)oxy)carbonyl)-2,7-diazaspiro[3.5]nonan-2-yl)methyl)phenyl)piperidine-4-carboxylic acid], the “% Inh MGLL Brain (Mouse, μM)” value at MGLL is “### (### is ≥75%)”. At ABHD6, the “% Inh ABHD6 Brain (Mouse, μM)” value is given as “### (### is ≥75%)”. Further, the “% Inh MGLL PFC (Human, μM)” value at MAGL is reported as “### (### is ≥75%)”.
For the compound `CC(C)(C#Cc1cc(CN2CCCC23CCN(C(=O)OC(C(F)(F)F)C(F)(F)F)CC3)cc(C(F)(F)F)c1)C(=O)O` [Example 140, 4-{3-[(8-{[(1,1,1,3,3,3-Hexafluoropropan-2-yl)oxy]carbonyl}-1,8-diazaspiro[4.5]decan-1-yl)methyl]-5-(trifluoromethyl)phenyl}-2,2-dimethylbut-3-ynoic acid], the “% Inh MGLL Brain (Mouse, μM)” value at MGLL is listed as “### (### is ≥75%)”. In addition, the “% Inh ABHD6 Brain (Mouse, μM)” value at ABHD6 is “### (### is ≥75%)”. Besides, the “% Inh MGLL PC3 (Human, μM)” value at MAGL is reported as “### (### is ≥75%)”.
Take `CN(Cc1ccc(C(F)(F)F)cc1N1CCC[C@H]1C(=O)O)C1(C)CCN(C(=O)OC(C(F)(F)F)C(F)(F)F)CC1` [Example 132, (2-(((1-(((1,U, 3,3,3-Hexafluoropropan-2-yl)oxy)carbonyl)-4-methylpiperidin-4-yl)(methyl)amino)methyl)-5-(trifluoromethyl)phenyl)proline]: the “% Inh MGLL Brain (Mouse, μM)” value on MGLL was “### (### is ≥75%)”. Further, the “% Inh ABHD6 Brain (Mouse, μM)” value at ABHD6 is “# (# is ≤25%)”. Besides, at MAGL, the “% Inh MGLL PC3 (Human, μM)” value is “### (### is ≥75%)”; the pIC50 is 6.00 to 7.00; the “% Inh MGLL PFC (Human, μM)” value is reported as “### (### is ≥75%)”.
As to `O=C(OC(C(F)(F)F)C(F)(F)F)N1CCC2(CCCN2Cc2cc(C(F)(F)F)cc(C3(C(=O)O)CCCC3)c2)CC1` [Example 8, 1-(3-((8-(((1,1,1,3,3,3-Hexafluoropropan-2-yl)oxy)carbonyl)-1,8-diazaspiro[4.5]decan-1-yl)methyl)-5-(trifluoromethyl)phenyl)cyclopentane-1-carboxylic acid], at MGLL, the “% Inh MGLL Brain (Mouse, μM)” value is “### (### is ≥75%)”. Also, the “% Inh ABHD6 Brain (Mouse, μM)” value at ABHD6 is “## (## is between 25 and 75%)”. Further, at MAGL, the “% Inh MGLL PFC (Human, μM)” value is listed as “### (### is ≥75%)”.
Consider `O=C(O)CN1CC2CC1CN2c1cc(CN2CCC3(CCN(C(=O)OC(C(F)(F)F)C(F)(F)F)CC3)C2)cc(C(F)(F)F)c1` (centres unmarked) [Example 125, 2-(5-{3-[(8-{[(1,1,1,3,3,3-Hexafluoropropan-2-yl)oxy]carbonvl}-2,8-diazaspiro[4.5]decan-2-yl)methyl]-5-(trifluoromethyl)phenyl}-2,5-diazabicyclo[2.2.1]heptan-2-yl)acetic acid], for which the “% Inh MGLL Brain (Mouse, μM)” value on MGLL is given as “### (### is ≥75%)”. In addition, the “% Inh ABHD6 Brain (Mouse, μM)” value at ABHD6 is “### (### is ≥75%)”. Moreover, the “% Inh MGLL PFC (Human, μM)” value on MAGL was “### (### is ≥75%)”.
In the case of `O=C(OC(C(F)(F)F)C(F)(F)F)N1CCC2(CCCN2Cc2ccc(C(F)(F)F)cc2C2(C(=O)O)CCCC2)CC1` [Example 7, 1-(2-((8-(((1,1,1,3,3,3-hexafluoropropan-2-yl)oxy)carbonyl)-1,8-diazaspiro[4.5]decan-1-yl)methyl)-5-(trifluoromethyl)phenyl)cyclopentane-1-carboxylic acid], the “% Inh MGLL Brain (Mouse, μM)” value on MGLL was “### (### is ≥75%)”. For the same compound, the “% Inh ABHD6 Brain (Mouse, μM)” value at ABHD6 is listed as “# (# is ≤25%)”. For the same compound, at MAGL, the “IC50 MGLL PC3 (Human, μM)” value is on record as “* * *” and the “% Inh MGLL PFC (Human, μM)” value was “### (### is ≥75%)”.

For the origin of these results see patent US11161856B2 (H. Lundbeck A/S, priority 2017, dated 2021).
